Consider one molecule from article PMC3597730, “Novel Phenolic Inhibitors of Small/Intermediate-Conductance Ca^2+-Activated K^+ Channels, KCa3.1 and KCa2.3” (PLoS ONE, 2013).

For data set [1], the target named is T1, KCa3.1 channels in 3T3 fibroblasts (Mus musculus, UniProt O89109).
T1 construct: KCa3.1 channels in 3T3 fibroblasts; endogenous in cells; host or cells: 3T3-L1 mouse embryonic fibroblasts
In words: Whole-cell patch-clamp of KCa3.1 currents in 3T3 fibroblasts. The format is cell-based. (In general: Patch clamp records ionic current or voltage across a cell membrane.)

In a further data set the target is T2, hKCa2.3 (Homo sapiens, UniProt Q9UGI6).
T2 construct: expressed in transfected cells; host or cells: COS7
T2 sequence (Q9UGI6 whole entry): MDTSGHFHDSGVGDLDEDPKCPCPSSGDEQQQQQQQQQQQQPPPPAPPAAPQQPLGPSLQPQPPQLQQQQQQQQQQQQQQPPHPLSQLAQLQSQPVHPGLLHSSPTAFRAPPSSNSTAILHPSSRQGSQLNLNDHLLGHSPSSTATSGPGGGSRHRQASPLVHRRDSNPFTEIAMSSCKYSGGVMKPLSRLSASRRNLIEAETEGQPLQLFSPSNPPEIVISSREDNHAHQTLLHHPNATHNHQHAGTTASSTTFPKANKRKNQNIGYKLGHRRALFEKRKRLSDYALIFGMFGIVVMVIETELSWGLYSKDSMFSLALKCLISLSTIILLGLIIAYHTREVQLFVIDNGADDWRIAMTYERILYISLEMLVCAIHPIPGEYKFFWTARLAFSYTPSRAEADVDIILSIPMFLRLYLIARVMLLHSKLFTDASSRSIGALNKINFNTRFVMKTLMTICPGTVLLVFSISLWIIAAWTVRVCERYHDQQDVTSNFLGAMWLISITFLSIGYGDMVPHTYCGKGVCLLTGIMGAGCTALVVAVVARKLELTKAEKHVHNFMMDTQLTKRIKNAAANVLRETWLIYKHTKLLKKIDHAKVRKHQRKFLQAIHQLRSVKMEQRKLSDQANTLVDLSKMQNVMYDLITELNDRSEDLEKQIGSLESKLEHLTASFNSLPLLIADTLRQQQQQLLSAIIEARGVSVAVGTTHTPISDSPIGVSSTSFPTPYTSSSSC
In words: Whole-cell patch-clamp of hKCa2.3 in COS7 cells. It counts as cell-based.

The next data set relates to T3, KCa1.1.
T3 construct: KCa1.1 in human U251 glioblastoma cells; endogenous in cells; host or cells: U251 glioblastoma cells
Nature of the data set: Whole-cell patch-clamp of KCa1.1 in U251 glioblastoma cells. The format is cell-based, human.

Another data set has as its target T4, hKv1.2 (Homo sapiens, UniProt P16389).
T4 construct: expressed in transfected cells; host or cells: B82 murine fibroblasts (Methods)
In words: Whole-cell patch-clamp of cloned hKv1.2. It counts as cell-based.

The test system of the next data set is T5, hERG channels.
T5 construct: expressed in transfected cells; gift of Craig January, University of Wisconsin
Nature of the data set: Whole-cell patch-clamp of hERG tail currents in HEK293 cells. The format is cell-based, human. The note with it: 13b 1 µM; caffeic acid, flufenamic acid 10 µM (Table S1).

The test system of a further data set is T6, hERG.
T6 construct: expressed in transfected cells; gift of Craig January, University of Wisconsin
The data set is described as above. It counts as cell-based, human. As to conditions: human, HEK293 cells expressing hERG, pH 7.4; hERG; compound 10 µM; read-out: % of control at 10 µM.

For data set [2], the system named is mixed KCa3.1 and KCa2.3 currents in PCAEC. In words: Whole-cell patch-clamp of KCa currents in porcine coronary artery endothelial cells. The format is cell-based.
In data set [3] the test system is calcium-activated chloride channels. As to conditions: previously shown; no reference given; read-out: reported EC50, calcium-activated chloride channels; cited from earlier work.
For data set [4], the system named is non-selective cation channels. The note with it: previously shown; no reference given; read-out: reported EC50, non-selective cation channels; cited from earlier work.

Like-named read-outs stand apart in the source and are kept apart here.

T4 sequence (P16389 whole entry): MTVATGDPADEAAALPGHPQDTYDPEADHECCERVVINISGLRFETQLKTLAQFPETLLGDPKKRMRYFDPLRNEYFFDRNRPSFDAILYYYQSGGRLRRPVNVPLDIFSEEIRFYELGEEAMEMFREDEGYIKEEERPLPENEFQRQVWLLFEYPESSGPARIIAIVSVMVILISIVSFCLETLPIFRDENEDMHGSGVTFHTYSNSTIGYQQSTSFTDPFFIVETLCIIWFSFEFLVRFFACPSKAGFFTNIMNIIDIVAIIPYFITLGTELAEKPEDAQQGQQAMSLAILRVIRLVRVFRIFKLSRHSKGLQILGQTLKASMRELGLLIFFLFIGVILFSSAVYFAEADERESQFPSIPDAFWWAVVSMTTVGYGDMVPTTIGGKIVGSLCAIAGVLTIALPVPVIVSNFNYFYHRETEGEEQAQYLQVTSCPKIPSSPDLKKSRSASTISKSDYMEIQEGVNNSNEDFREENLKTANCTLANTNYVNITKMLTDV

What is called EC50 is the concentration giving half of the maximal effect. As to `O=C(O)c1ccccc1Nc1cccc(C(F)(F)F)c1` [Flufenamic Acid, 2-(3-(trifluoromethyl)phenylamino) benzoic acid, reference compound], the remaining activity at 1 µM in data set [1] (KCa3.1 whole-cell current, 3T3 fibroblasts, 1 µM free Ca2+ in pipette, compound 1 µM, mean ± SEM, n ≥3, read-out: % of control at 1 µM) amounted to 65 ± 4%. The remaining activity at 10 µM in data set [1] (KCa3.1 whole-cell current, 3T3 fibroblasts, 1 µM free Ca2+ in pipette, compound 10 µM, mean ± SEM, n ≥3, read-out: % of control at 10 µM) was 13 ± 5%; in data set [1] (read-out: KCa3.1 current blocked, % of control), 6 ± 1%; at hKCa2.3 (COS-7, hKCa2.3, compound 10 µM, mean ± SEM, n ≥ 3, read-out: % of control at 10 µM) it was 104 ± 5%; on hKv1.2 (hKv1.2, compound 10 µM, read-out: % of control at 10 µM), 106 ± 5%. Further, the remaining activity at 50 µM in [1] (KCa3.1 whole-cell current, 3T3 fibroblasts, 1 µM free Ca2+ in pipette, compound 50 µM, mean ± SEM, n ≥3, read-out: % of control at 50 µM) turned out to be 2.5 ± 0.3%; at hKCa2.3 (COS-7, hKCa2.3, compound 50 µM, mean ± SEM, n ≥ 3, read-out: % of control at 50 µM), 100 ± 2%; at hKv1.2 (hKv1.2, compound 50 µM, read-out: % of control at 50 µM), 100 ± 2%. The “KCa3.1 blocking effect (in words)” value in data set [1] (whole-cell, 3T3 fibroblasts, concentrations up to 50 µM as in Table 1) is reported as “Complete inhibition”. Also, the EC50 in data set [1] (whole-cell, 3T3 fibroblasts, read-out: EC50 of KCa3.1 inhibition) is 1.6 µM; in [3], around 30 µM; in data set [4], around 5 µM. Also, the “KCa2.3 blocking effect (in words)” value on hKCa2.3 (micromolar concentrations) is given as “no blocking effects”. Also, in the data set on KCa1.1 (10 µM), the “potentiation of KCa1.1” value worked out at 2.7 fold. Also, the “% of control at 10 µM” value in the data set on KCa1.1 (hKCa1.1, compound 10 µM) was 270 ± 106%. In addition, the “hKv1.2 blocking effect (in words)” value at hKv1.2 (flufenamic acid and caffeic acid 10 and 50 µM, 13c 1 µM) is “did not block”. Besides, the “hERG effect (in words)” value in the data set on hERG channels is “slight potentiation”. The activity at 10 µM in the data set on hERG worked out at 116 ± 15%. Moreover, the “mixed KCa3.1/KCa2.3 current, % of control” value in data set [2] (10 µM, n = 2) is on record as 25±3%; in [2] (50 µM, n = 1) it was 3%.
